The values below come from patent US11939612B2, “Process for preparing sphingolipids” (Evonik Operations GmbH, priority 2018, dated 2024).

The nature of series [1]: Hair breakage measurement (Cyclic Tester), repair after acidic straightening. The note with it: acid-straightened ethnic hair, test conditioner, 5 treatments, FIG. 3. How it is done: Ethnic hair was acid-straightened and aftertreated with a conditioner that contained one of the claimed compositions with elevated triglyceride content, consisting of: 10% olive oil-based ceramide (Example 2). For comparison, the process was conducted with a corresponding amount of pure ceramide NG or pure olive oil.
The repair effect and the boosting of the CMC complex by means of Hair fatigue alpha were measured.
Ethnic hair was chemically straightened. For this purpose, an acidic standard formulation having a pH of about 1-2 was used in combination with the use of a straightening iron. Subsequently, the hair was treated as follows: • 1. Washing with a shampoo consisting of sodium lauryl ether sulfate and cocamidopropylbetaine. • 2. Application of the test conditioner; the contact time was 5 min. Subsequently, the hair tresses were rinsed under flowing tap water at a temperature of 37° C. for 1 min. • 3. Drying of the hair tresses with a hairdryer for 3 minutes.
These three treatment steps were conducted a total of 5×. […]
For quantification of the repair effect, a hair breakage measurement was conducted (Cyclic Tester, Diastron Limited, UK). […] The number of extension cycles survived is recorded and serves to calculate the probability of survival. […]

Series [2] is described as follows: Solubility temperature and crystal-free incorporation into cosmetic oils. The series is classed as physicochemical. The note with it: for Appearance at RT: after cooling. How it is done:
For this purpose, the solubility temperatures of the sphingolipids were ascertained: A final concentration of 0.1% ceramide in cosmetic oil was chosen. The ceramide compositions were heated and stirred gradually in the cosmetic oils in a beaker on a hotplate. The solubility temperature was attained as soon as the solution was clear. Subsequently, the mixture was stirred at the solubility temperature ascertained for 1 hour. After it had cooled down to room temperature, the formulation was examined.

The mark [3] stands for this setting: 0.1% ceramide in Mineral Oil (non-polar).
The mark [4] stands for this setting: 0.1% ceramide in Octyldodecanol (polar).
[5] abbreviates: 0.1% ceramide in TEGOSOFT APM (polar).
The mark [6] stands for this setting: 0.1% ceramide in TEGOSOFT CT (polar-medium polar).
[7] abbreviates: 0.1% ceramide in TEGOSOFT M (medium polar).
The mark [8] stands for this setting: 0.1% ceramide in TEGOSOFT OS (non-polar).

For ceramide NG, in series [1], the “repair effect (probability of survival in the hair breakage test)” value is reported as “not able to achieve any repair effect”.

As to ceramide NP [Pure ceramide NP], the Solubility temperature is 110 °C in series [2] (setting [3]); 70 °C in series [2] (setting [4]); 65 °C in series [2] (setting [5]); 95 °C in series [2] (setting [6]); 90 °C in series [2] (setting [7]); 100 °C in series [2] (setting [8]). Also, the “Appearance at RT” value in series [2] (setting [3]), in series [2] (setting [4]), in series [2] (setting [5]), in series [2] (setting [6]), in series [2] (setting [7]) and in series [2] (setting [8]) was “crystals” each time.
